What all share (experiment): KinomeScan profiling
Common to all, as to type: binding

The target of assay [1] is T1, ABL1(F317L)-phosphorylated (Homo sapiens, UniProt P00519, F317L).
T1 construct: purchased KinomeScan®
The note with it: read-out: % control. The gist of the method:
(§1)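 Luminescence (RLU) was converted to percent of control, with DMSO set as 100% and a reference compound as 0%. Test compounds were run at 1 μM against 468 kinases. Kinases showing below 35% of control were scored as bound.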

The target of assay [2] is T2, ABL1(H396P)-nonphosphorylated (Homo sapiens, UniProt P00519, H396P).
T2 construct: purchased KinomeScan®
The note with it: read-out: % control. The gist of the method: as §1

A further assay has as its target T3, EPHB6 (Homo sapiens, UniProt O15197).
T3 sequence (O15197 32-1021): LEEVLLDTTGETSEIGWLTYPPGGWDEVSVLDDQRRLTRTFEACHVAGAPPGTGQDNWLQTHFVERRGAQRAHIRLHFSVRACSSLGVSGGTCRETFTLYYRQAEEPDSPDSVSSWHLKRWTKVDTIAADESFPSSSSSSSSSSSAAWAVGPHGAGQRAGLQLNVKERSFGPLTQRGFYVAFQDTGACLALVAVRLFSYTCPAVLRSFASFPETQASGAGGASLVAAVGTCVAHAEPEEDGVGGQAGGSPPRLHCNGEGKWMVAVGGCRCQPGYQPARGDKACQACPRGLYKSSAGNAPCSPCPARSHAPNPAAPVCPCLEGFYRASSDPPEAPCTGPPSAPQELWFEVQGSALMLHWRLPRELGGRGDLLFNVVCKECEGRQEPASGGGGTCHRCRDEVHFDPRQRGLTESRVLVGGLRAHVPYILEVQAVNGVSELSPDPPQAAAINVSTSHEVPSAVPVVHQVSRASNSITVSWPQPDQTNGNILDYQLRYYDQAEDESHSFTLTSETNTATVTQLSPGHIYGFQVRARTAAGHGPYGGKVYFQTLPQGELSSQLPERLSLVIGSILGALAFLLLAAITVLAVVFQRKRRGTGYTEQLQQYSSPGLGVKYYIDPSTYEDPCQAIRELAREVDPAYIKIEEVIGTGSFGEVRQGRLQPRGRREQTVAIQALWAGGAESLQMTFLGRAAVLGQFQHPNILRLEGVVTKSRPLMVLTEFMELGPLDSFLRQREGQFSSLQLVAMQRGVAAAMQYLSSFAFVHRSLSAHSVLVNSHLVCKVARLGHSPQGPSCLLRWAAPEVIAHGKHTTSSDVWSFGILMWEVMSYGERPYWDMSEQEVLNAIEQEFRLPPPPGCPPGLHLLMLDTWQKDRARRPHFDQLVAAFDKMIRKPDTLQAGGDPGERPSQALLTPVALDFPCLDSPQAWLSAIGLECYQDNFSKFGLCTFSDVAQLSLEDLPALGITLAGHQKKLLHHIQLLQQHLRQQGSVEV
The note with it: EPHB6, 1 μM; read-out: % control. The gist of the method: as §1

The target in a further assay is ERN1 (Homo sapiens, UniProt O75460). The note with it: ERN1, 1 μM; read-out: % control. The essentials:
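Selectivity was assessed by binding competition at 1 μM against 468 kinases. Values below 35% of control define an interaction.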

For the next assay, the target named is FYN (Homo sapiens, UniProt P06241). The note with it: read-out: % control. The gist of the method: as §1
For a further assay, the target named is LRRK2 (Homo sapiens, UniProt Q5S007). The note with it: LRRK2, 1 μM; read-out: % control. The essentials: as §1
Another assay addresses T4, MARK4 (Homo sapiens, UniProt Q96L34).
T4 sequence (Q96L34 1-752): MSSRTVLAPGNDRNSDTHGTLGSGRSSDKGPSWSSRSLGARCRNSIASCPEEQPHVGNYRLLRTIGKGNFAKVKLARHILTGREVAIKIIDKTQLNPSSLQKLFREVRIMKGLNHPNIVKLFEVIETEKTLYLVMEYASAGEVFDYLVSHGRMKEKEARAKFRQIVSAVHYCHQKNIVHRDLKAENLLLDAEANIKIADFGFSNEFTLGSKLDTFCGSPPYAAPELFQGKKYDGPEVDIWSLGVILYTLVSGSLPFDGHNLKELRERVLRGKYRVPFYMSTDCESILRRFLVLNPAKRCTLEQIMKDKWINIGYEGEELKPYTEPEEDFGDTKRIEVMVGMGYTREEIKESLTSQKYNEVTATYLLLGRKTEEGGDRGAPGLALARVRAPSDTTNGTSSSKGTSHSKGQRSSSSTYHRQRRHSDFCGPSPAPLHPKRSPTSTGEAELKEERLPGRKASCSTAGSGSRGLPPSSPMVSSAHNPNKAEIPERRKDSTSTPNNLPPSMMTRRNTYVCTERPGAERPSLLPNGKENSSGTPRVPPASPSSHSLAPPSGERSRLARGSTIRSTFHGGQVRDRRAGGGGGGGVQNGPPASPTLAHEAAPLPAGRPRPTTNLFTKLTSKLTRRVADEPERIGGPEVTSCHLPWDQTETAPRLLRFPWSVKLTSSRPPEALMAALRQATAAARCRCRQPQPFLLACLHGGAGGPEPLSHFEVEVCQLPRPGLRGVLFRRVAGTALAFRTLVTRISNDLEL
Particulars: MARK4, 1 μM; read-out: % control. The gist of the method:
as §1

The next assay concerns the target MELK (Homo sapiens, UniProt Q14680). The note with it: read-out: % control. The gist of the method:
as §1

The target of a further assay is MLK1 (Homo sapiens, UniProt P80192). The note with it: MLK1, 1 μM; read-out: % control. The gist of the method: as §1
The next assay has as its target YANK2 (Homo sapiens, UniProt Q9NY57). Particulars: YANK2, 1 μM; read-out: % control. The gist of the method:
as §1

Chain of MELK (Q14680 whole entry): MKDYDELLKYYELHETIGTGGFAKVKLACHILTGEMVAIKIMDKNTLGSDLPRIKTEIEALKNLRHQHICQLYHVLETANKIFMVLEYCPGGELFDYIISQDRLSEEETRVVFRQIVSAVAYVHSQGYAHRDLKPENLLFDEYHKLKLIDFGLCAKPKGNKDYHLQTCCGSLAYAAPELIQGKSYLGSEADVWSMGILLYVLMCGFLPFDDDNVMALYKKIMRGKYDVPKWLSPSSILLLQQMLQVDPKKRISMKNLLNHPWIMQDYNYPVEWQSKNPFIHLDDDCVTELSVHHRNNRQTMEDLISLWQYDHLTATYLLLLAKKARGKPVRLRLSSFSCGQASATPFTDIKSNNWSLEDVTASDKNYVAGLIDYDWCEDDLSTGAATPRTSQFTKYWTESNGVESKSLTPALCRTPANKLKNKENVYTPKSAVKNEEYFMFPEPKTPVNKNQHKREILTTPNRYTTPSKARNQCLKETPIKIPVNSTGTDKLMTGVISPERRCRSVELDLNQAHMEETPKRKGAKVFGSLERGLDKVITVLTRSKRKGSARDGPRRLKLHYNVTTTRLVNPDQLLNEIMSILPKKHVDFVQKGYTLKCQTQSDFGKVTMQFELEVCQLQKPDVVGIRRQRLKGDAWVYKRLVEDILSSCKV
Chain of FYN (P06241 whole entry): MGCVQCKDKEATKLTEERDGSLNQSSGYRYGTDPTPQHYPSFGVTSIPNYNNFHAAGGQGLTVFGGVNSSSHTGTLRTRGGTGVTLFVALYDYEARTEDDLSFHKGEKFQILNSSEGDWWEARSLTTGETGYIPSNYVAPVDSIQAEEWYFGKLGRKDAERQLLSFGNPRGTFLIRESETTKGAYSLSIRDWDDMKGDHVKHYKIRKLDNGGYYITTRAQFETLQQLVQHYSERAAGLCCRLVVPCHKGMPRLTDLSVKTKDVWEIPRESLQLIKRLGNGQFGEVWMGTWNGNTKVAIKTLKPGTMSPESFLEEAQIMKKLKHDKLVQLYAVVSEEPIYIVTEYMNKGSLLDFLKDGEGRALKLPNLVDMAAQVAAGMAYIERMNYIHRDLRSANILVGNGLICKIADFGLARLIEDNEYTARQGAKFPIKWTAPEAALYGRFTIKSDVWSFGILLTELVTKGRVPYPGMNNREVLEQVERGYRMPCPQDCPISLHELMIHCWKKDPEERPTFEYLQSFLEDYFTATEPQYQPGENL
Chain of LRRK2 (Q5S007 whole entry): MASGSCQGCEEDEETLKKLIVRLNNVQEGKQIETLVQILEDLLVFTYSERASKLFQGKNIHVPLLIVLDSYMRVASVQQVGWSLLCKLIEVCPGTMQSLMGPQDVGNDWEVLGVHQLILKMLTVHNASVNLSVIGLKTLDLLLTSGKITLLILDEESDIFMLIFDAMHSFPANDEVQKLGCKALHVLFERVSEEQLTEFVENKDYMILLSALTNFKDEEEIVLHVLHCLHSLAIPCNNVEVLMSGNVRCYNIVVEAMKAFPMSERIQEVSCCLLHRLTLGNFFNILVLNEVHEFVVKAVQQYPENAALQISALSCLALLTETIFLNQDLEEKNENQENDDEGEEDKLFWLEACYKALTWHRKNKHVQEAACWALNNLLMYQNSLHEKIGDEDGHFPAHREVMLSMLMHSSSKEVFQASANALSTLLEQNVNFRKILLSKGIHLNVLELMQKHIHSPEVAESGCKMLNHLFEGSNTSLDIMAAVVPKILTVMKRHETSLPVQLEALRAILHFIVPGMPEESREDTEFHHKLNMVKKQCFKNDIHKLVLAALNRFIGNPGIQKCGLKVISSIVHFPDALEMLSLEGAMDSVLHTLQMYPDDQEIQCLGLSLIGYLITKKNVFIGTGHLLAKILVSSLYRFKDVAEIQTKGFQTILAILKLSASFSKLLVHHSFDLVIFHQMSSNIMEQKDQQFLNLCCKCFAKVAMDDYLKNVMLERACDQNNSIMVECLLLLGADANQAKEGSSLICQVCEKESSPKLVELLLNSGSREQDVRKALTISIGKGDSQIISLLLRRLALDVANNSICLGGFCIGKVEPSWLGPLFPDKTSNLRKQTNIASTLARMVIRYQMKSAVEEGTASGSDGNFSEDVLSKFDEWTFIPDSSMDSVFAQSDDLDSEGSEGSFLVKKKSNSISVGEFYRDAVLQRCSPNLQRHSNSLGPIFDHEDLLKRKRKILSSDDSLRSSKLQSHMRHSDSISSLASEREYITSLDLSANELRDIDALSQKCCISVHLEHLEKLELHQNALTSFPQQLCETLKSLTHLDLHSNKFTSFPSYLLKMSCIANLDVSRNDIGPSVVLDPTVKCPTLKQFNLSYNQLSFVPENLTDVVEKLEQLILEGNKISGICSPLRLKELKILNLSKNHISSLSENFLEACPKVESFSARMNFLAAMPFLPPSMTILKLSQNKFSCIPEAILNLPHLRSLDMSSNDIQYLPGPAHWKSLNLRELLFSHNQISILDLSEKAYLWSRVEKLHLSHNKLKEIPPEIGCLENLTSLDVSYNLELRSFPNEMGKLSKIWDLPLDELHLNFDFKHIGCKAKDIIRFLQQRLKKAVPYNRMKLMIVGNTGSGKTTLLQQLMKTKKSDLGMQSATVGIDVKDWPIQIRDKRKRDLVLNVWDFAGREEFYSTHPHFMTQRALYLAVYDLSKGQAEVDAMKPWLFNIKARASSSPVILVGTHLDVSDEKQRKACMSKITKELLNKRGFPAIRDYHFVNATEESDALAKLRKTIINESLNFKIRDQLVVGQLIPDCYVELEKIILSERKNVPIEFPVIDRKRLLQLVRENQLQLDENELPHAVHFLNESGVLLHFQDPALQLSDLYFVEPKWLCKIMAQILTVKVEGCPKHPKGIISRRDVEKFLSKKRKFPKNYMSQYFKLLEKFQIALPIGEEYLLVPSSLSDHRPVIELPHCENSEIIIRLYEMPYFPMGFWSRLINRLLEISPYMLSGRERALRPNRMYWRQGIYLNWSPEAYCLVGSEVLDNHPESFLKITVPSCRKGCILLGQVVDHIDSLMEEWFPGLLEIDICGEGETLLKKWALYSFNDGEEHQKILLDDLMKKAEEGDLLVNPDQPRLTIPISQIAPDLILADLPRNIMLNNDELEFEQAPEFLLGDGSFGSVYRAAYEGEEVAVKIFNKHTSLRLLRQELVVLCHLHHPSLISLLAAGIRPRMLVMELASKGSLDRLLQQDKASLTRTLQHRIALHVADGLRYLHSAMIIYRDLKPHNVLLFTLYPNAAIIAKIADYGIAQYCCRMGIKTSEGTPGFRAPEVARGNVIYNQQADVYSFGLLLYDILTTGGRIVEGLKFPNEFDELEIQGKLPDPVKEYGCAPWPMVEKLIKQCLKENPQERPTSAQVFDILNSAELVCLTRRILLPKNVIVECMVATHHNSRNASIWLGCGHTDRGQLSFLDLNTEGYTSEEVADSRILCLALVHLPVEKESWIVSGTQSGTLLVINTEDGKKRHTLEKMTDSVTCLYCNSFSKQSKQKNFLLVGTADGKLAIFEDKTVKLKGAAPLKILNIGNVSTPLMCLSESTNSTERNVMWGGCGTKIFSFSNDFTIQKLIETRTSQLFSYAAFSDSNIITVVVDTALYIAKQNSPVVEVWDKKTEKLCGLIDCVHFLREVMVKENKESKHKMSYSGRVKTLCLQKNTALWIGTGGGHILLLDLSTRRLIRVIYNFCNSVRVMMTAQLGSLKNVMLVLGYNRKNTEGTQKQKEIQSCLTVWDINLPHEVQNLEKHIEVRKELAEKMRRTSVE
Chain of YANK2 (Q9NY57 whole entry): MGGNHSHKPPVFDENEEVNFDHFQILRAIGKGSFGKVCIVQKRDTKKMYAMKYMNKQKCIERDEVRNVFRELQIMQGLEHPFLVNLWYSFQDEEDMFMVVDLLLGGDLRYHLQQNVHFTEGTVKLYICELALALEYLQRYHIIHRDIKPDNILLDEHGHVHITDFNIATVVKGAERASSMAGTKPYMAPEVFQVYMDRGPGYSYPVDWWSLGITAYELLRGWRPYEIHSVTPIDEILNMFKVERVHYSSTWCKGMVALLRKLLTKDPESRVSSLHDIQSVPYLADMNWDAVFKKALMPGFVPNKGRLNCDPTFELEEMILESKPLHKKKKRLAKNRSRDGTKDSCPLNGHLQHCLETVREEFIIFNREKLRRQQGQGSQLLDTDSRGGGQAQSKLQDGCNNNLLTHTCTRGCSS
Chain of ERN1 (O75460 19-977): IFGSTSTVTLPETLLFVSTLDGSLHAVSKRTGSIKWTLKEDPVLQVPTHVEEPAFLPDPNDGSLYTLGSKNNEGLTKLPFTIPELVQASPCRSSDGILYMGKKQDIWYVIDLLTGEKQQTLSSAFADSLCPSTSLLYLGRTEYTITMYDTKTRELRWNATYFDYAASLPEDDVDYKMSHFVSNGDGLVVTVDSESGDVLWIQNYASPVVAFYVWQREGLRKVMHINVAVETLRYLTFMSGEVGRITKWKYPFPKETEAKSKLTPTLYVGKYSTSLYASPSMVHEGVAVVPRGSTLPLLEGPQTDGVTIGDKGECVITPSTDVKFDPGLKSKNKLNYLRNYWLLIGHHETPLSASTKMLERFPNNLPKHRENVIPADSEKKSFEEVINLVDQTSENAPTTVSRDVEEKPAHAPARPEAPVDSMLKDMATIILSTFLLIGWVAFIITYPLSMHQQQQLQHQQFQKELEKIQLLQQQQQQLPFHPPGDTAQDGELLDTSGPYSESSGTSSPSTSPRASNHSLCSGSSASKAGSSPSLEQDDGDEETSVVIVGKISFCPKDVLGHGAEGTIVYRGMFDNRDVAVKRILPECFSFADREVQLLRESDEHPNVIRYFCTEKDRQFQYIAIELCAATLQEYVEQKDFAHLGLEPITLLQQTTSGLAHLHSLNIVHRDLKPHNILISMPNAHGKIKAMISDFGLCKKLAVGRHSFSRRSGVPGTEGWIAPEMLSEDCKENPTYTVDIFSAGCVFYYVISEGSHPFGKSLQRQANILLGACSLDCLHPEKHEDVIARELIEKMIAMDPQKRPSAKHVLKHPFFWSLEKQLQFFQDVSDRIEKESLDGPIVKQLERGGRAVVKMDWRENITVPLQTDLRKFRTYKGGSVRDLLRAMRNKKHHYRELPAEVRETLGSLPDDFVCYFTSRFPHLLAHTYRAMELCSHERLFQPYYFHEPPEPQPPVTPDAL

Regarding `CNc1c(-c2ccc(C(=O)N3CCC(N4CCOCC4)CC3)cc2)cnc2[nH]cc(Cl)c12` [Compound 96, (4-(3-chloro-4-(methylamino)-1H-pyrrolo[2,3-b]pyridin-5-yl)phenyl)(4-morpholinopiperidin-1-yl)methanone], the remaining binding at 1 µM in [1] is 81%; in assay [2], 76%; on EPHB6, 99%; at ERN1, 73%; on FYN it was 96%; at LRRK2, 2.6%. Further, the remaining binding at 1 µM turned out to be 38% at MARK4, 16% at MELK, 96% on MLK1 and 100% at YANK2.
As to `O=C(c1ccc(-c2cnc3[nH]cc(Cl)c3c2NC2CCCC2)cc1)N1CCC(N2CCOCC2)CC1` [Compound 101, (4-(3-chloro-4-(cyclopentylamino)-1H-pyrrolo[2,3-b]pyridin-5-yl)phenyl)(4-morpholinopiperidin-1-yl)methanone], the remaining binding at 1 µM was 43% in [1]; 100% in assay [2]; 100% at EPHB6; 86% at ERN1; 87% on FYN; 33% on LRRK2. The remaining binding at 1 µM at MARK4 is 82%; at MELK, 30%; on MLK1 it was 96%; on YANK2, 100%.
Turning to `CNc1c(-c2cnn([C@H]3CCN(C(C)=O)C[C@@H]3F)c2)cnc2[nH]cc(Cl)c12` [Compound 77, 1-((3S,4S)-4-(4-(3-chloro-4-(methylamino)-1H-pyrrolo[2,3-b]pyridin-5-yl)-1H-pyrazol-1-yl)-3-fluoropiperidin-1-yl)ethan-1-one], the remaining binding at 1 µM in assay [1] stood at 91%; in [2] it was 36%; on EPHB6, 55%; at ERN1, 56%; on FYN, 94%; at LRRK2, 15%. For the same molecule, the remaining binding at 1 µM on MARK4 was found to be 36%; on MELK, 20%; on MLK1, 91%; on YANK2, 100%.

The values above are taken from patent US12275731B2, “Azaindole inhibitors of wild-type and mutant forms of LRRK2” (DANA-FARBER CANCER INSTITUTE, INC., priority 2018, dated 2025).
